{"source": "patent US9358272B2", "about": "“Multicomponent compositions and their uses” (THE ADMINISTRATORS OF THE TULANE EDUCATIONAL FUND, priority 2011, dated 2016)", "key": {"[1]": {"tested_on": "pancreatic cancer CFPAC-1 cells", "assay": "Cell proliferation assay (MTT), CFPAC-1 cells", "type": "cell-based, Human", "settings": "single agents and combinations", "procedure": "(§1) Cell Proliferation Assay (MTT)\n(§2) The cell proliferation assay was performed as described previously in Sun et al., Bioorg Med Chem Lett, 2004, Vol. 14, pp. 2041-2046. Briefly, 50 μl aliquots of medium with different concentrations of compounds were added to 96-well plates. All compound concentrations were tested in triplicate. Another 50 μl of the cell stock (1×10^5 cells/ml of media) was dispensed into each test well and the plates were incubated at 37° C. in a CO2 incubator for 3 days. Following the incubation period, 15 μl of the dye solution was added to each well and the plates were then incubated at 37° C. for 4 hours, followed by the addition of 100 μl per well of the solubilization solution. The plates were incubated at 37° C. until the contents in each well became a uniform-colored solution. The absorbance was measured and recorded at 570 nm by a Victor Plate Reader.\n(§3) The cell proliferation assay (Promega, Madison, Wis.) was performed as described in Sun et al., Bioorg Med Chem Lett, 2004, Vol. 14, pp. 2041-2046. The absorbance was measured and recorded at 570 nm by a Victor Plate Reader (PerkinElmer, Boston, Mass.)."}, "[2]": {"tested_on": "ovarian cancer OVCAR8 cells", "assay": "Cell proliferation assay (MTT), OVCAR8 cells", "type": "cell-based, Human", "settings": "single agents and combinations", "procedure": "as §1, §2, §3"}, "[3]": {"tested_on": "colonrectal cancer HT-29 cells", "assay": "Cell proliferation assay (MTT), HT-29 cells", "type": "cell-based, Human", "settings": "single agents and combinations", "procedure": "as §1, §2, §3"}, "[4]": {"tested_on": "cervical cancer Hela cells", "assay": "Cell proliferation assay (MTT), cervical cancer Hela cells", "type": "cell-based, Human", "settings": "single agents and combinations, VPA 2.5 mM in FIGS. 19, 22"}, "[5]": {"tested_on": "small cell lung cancer DMS-53 cells", "assay": "Cell proliferation assay (MTT), DMS-53 cells", "type": "cell-based", "settings": "single agents and combinations, 2.5 mM VPA or 10 uM SBHA in FIGS. 21, 24"}, "[6]": {"tested_on": "pancreatic carcinoid BON cells", "assay": "Cell proliferation assay (MTT), BON cells", "type": "cell-based, Human", "settings": "single agents and combinations, 2.5 mM VPA or 10 uM SBHA in FIGS. 20, 23"}, "Hela-GFP cells": {"tested_on": "Hela-GFP cells", "assay": "Cell proliferation assay (MTT), Hela-GFP cells", "type": "cell-based, Human", "procedure": "as §1\n(§4) The cell proliferation assay (Promega, Madison, Wis.) was performed as described previously in Sun et al., Bioorg Med Chem Lett, 2004, Vol. 14, pp. 2041-2046. Briefly, fifty μl of medium with or without tested compounds was added to 96-well plates. Another 50 μl of tested cancer cells (1×10^5 cells/ml) suspended in culture medium was dispensed into each well. The plates were incubated at 37° C. for 3 days. Afterward, plates were added with a 15 μl dye solution per well and incubated at 37° C. for 4 hours. To each well was then added 100 μl of the solubilization solution and the plates were incubated at 37° C. again until the contents in each well became a uniformly colored solution. The plates were measured at 570 nm by a Victor Reader (PerkinElmer)."}, "Hela-ICN1 cells": {"tested_on": "Hela-ICN1 cells", "assay": "Cell proliferation assay (MTT), Notch1-activated Hela-ICN1 cells", "type": "cell-based, Human", "procedure": "as §1, §4"}, "[7]": {"tested_on": "cAMP production in Hela-ICN1 cells", "assay": "Fluorescence polarization (FP) cAMP assay, Hela-ICN1 cells", "type": "cell-based, Human", "settings": "for cAMP production: Hela cells with activated Notch1 signaling (Hela-ICN1)", "procedure": "(§5) Fluorescence Polarization (FP) cAMP Assay The FP cAMP assay (FPA202) was performed according to the manufacturer's protocol (PerkinElmer, Boston, Mass. 02118-2512). Briefly, ten μl of forskolin at different concentrations were added to each well, then to each well ten μl of cell suspended in Stimulation Mix (made fresh before use by mixing anti-cAMP antibody in stimulation buffer) was added. Plates were incubated 30 minutes at 37° C. Twenty μl of Detection Mix (Fluo-cAMP stock diluted in Detection Buffer) was added and continued incubation 30 minutes at 37° C. Meanwhile, the standard curve, and controls were done. The cAMP was measured by Victor Reader (PerkinElmer)."}, "[8]": {"tested_on": "cAMP production in Hela-GFP cells", "assay": "Fluorescence polarization (FP) cAMP assay, Hela-GFP cells", "type": "cell-based, Human", "settings": "control Hela (Hela-GFP) cells", "procedure": "as §5"}}, "note": "Where a SMILES comes first, the peptide text is derived from it. [ ]: non-standard residue; d: D form. The star is where a group is joined. Nle = CCCC[C@H](N)C(=O)O; Cbz = O=C(OCc1ccccc1)*"}
{"smiles": "CCCC[C@@H](C=O)NC(=O)[C@H](CC(C)C)NC(=O)[C@H](CC(C)C)NC(=O)OCc1ccccc1", "note": "[NLE, Z-Leu-Leu-Nle-CHO] (Cbz-Leu-Leu-[Nle]-aldehyde)", "values": [{"measurement": "cell growth suppression (MTT), in words", "setting": "[1]", "result": "induced cell growth arrest"}, {"measurement": "cell growth suppression (MTT), in words", "setting": "[2]", "result": "induced cell growth arrest"}, {"measurement": "cell growth suppression (MTT), in words", "setting": "[3]", "result": "induced cell growth arrest"}]}
{"smiles": "O=C(CCCCCCC(=O)NO)NO", "note": "[SBHA, suberoyl bis-hydroxamic acid]", "values": [{"measurement": "cell growth suppression (MTT), in words", "setting": "[4]", "result": "suppressed"}, {"measurement": "cell growth suppression (MTT), in words", "setting": "[5]", "result": "induced growth suppression"}, {"measurement": "cell growth suppression (MTT), in words", "setting": "[6]", "result": "induced growth suppression"}]}
{"smiles": "C[C@H](N)C(=O)NCC(=O)N[C@H]1CSSC[C@@H](C(=O)O)NC(=O)[C@H](CO)NC(=O)[C@H]([C@@H](C)O)NC(=O)[C@H](Cc2ccccc2)NC(=O)[C@H]([C@@H](C)O)NC(=O)[C@H](CCCCN)NC(=O)[C@H](Cc2c[nH]c3ccccc23)NC(=O)[C@H](Cc2ccccc2)NC(=O)[C@H](Cc2ccccc2)NC(=O)[C@H](CC(N)=O)NC(=O)[C@H](CCCCN)NC1=O", "note": "[SST-14, Ala-Gly-Cys-Lys-Asn-Phe-Phe-Trp-Lys-Thr-Phe-Thr-Ser-Cys]", "values": [{"measurement": "inhibitory rate of cell proliferation (MTT)", "setting": "Hela-GFP cells; compound at 1 μM", "result": "almost no effect"}, {"measurement": "inhibitory rate of cell proliferation (MTT)", "setting": "Hela-GFP cells; compound at 10 μM", "result": 28, "unit": "%"}, {"measurement": "inhibitory rate of cell proliferation (MTT)", "setting": "Hela-GFP cells; compound at 20 μM", "result": "about 40%"}, {"measurement": "inhibition of cell growth (MTT)", "setting": "Hela-ICN1 cells; compound at 1 μM", "result": 2, "unit": "%"}, {"measurement": "inhibition of cell growth (MTT)", "setting": "Hela-ICN1 cells; compound at 10 μM", "result": 8, "unit": "%"}]}
{"smiles": "C=C[C@@]1(C)CC(=O)[C@]2(O)[C@@]3(C)[C@@H](O)CCC(C)(C)[C@@H]3[C@H](O)[C@H](OC(C)=O)[C@@]2(C)O1", "note": "[forskolin]", "values": [{"measurement": "cAMP production", "setting": "[7]; forskolin at 1 μM", "result": 0.05, "unit": "pMol cAMP per 10^3 cells"}, {"measurement": "cAMP production", "setting": "[7]; forskolin at 10 μM", "result": 0.25, "unit": "pMol cAMP per 10^3 cells"}, {"measurement": "cAMP production", "setting": "[7]; forskolin at 50 μM", "result": 0.46, "unit": "pMol cAMP per 10^3 cells"}, {"measurement": "cAMP concentration in Hela-ICN1 cells relative to Hela-GFP cells", "setting": "[7]; forskolin at 1 μM", "result": 10, "unit": "fold"}, {"measurement": "cAMP concentration in Hela-ICN1 cells relative to Hela-GFP cells", "setting": "[7]; forskolin at 10 μM", "result": 14, "unit": "fold"}, {"measurement": "cAMP concentration in Hela-ICN1 cells relative to Hela-GFP cells", "setting": "[7]; forskolin at 50 μM", "result": 19, "unit": "fold"}, {"measurement": "cAMP production", "setting": "[8]; forskolin at 1 μM", "result": 0.005, "unit": "pMol cAMP per 10^3 cells"}, {"measurement": "cAMP production", "setting": "[8]; forskolin at 10 μM", "result": 0.018, "unit": "pMol cAMP per 10^3 cells"}, {"measurement": "cAMP production", "setting": "[8]; forskolin at 50 μM", "result": 0.024, "unit": "pMol cAMP per 10^3 cells"}]}
